Reference: patent US20230372221A1, “USE OF THIOPYRIDINONE COMPOUNDS FOR PREVENTING THE FORMATION OF CUTANEOUS BLACKHEADS” (L'OREAL, priority 2020, published 2023)

System: oxidation of the L-DOPA under the action of the bacterial extract (intracellular extract of Cutibacterium acnes CIP 53.117)
Assay: In vitro evaluation of the ability to inhibit the development of the colour (absorbance at 475 nm of L-DOPA + Cutibacterium acnes extract)
Format: biochemical
Settings: for inhibiting the development of the colour (result in words): compared with Reference (absence of treatment); for optical density at 475 nm: 32° C.; for % inhib (percentage of inhibition of the formation of the coloured product): from initial rate of oxidation between 10 and 40 minutes vs reference composition
From the text: This method is based on the measurement of absorbance, over time, carried out directly on a composition formed of a mixture of intracellular extract of bacteria of Cutibacterium acnes type, of 3,4-dihydroxy-L-phenylalanine (L-DOPA) and of a test compound. The measurements are compared with those carried out for a mixture of an intracellular extract of bacteria of Cutibacterium acnes type and of 3,4-dihydroxy-L-phenylalanine (L-DOPA), in the absence of test compound (reference). The method is adapted from a method for the enzymatic assay of the tyrosinase activity (Behbahani et al., Microchemical Journal (1993), 47, 251), which is based on the absorbance properties at 475 nm of a coloured intermediate of the pathway for the biosynthesis of melanin starting from L-DOPA, namely dopachrome, a product of the oxidation of L-DOPA. An intracellular extract of bacteria of Cutibacterium acnes CIP 53.117 type stored at 4° C. in the lyophilized form is suspended in 1×PBS (supplied by Gibco BRL Life Technologies) at a concentration of 6 mg/ml. A solution of L-DOPA at a concentration of 0.5 mg/ml is prepared by bringing together L-DOPA (supplied by Sigma-Aldrich) and milliQ water, so as to have an L-DOPA concentration of 1 mg/ml, then diluting with 1×PBS (Dulbecco's Phosphate Buffered Saline, supplied by Gibco BRL Life Technologies). The mixture of 50 μl of these two solutions and of 100 μl of 1×PBS (Dulbecco's Phosphate Buffered Saline, supplied by Gibco BRL Life Technologies) results in a composition with a total volume of 200 μl containing L-DOPA (at a concentration of 125 μg/ml) and Cutibacterium acnes extract (at a concentration of 1.5 mg/ml). The test compositions and the reference composition are introduced separately into wells of a 96-well microplate suitable for reading in visible spectrophotometry, and placed at a temperature of 32° C. The formation of a coloured product is monitored over time by spectrophotometry. To do this, the absorbance, or optical density (O.D.), is measured at 475 nm from the time 0 to the time 2 hours by means of a Spectra Max M5e reader and the Spectra Max software (the time 0 corresponds to the introduction of the composition into the wells). The ability to inhibit the development of the colour of a given compound was assessed by comparing the absorbance measurements obtained for the test compositions with those obtained for the reference composition. More specifically, the inhibitory effect of the test compound was evaluated by comparing the initial rate of oxidation of the L-DOPA under the action of the bacterial extract at 475 nm for the test composition with that of the reference composition in order to obtain a corresponding percentage of inhibition. In practice, the initial rate (Vi) of the oxidation reaction is calculated from the linear part of the curve of the graph of the absorbance values. As this part lies between 10 and 40 minutes (see the graph in FIG. 1), the initial rate of the oxidation reaction is determined using the following relationship: [formula] The percentage of inhibition (% inhib) of a given compound with regard to the formation of the coloured product is subsequently obtained using the values of the initial rate of the oxidation reaction for the reference composition (Viref) and for the test composition ([…]) according to the following relationship: [formula] Within the meaning of the invention, a compound is regarded as having an inhibitory effect if the % inhib value is at least 15%.

[1] = test compound 100 μM, duration 0 minutes
[2] = test compound 100 μM, duration 10 minutes
[3] = test compound 100 μM, duration 20 minutes
[4] = test compound 100 μM, duration 30 minutes
[5] = test compound 100 μM, duration 40 minutes
[6] = test compound 100 μM, duration 60 minutes
[7] = test compound 100 μM, duration 80 minutes
[8] = test compound 100 μM, duration 100 minutes
[9] = test compound 100 μM, duration 120 minutes

CCOC(=O)CN(C)C(=O)c1ccc[nH]c1=S [Compound 4, Ethyl N-methyl-N-[(2-thioxo-1,2-dihydropyridin-3-yl)carbonyl]glycinate]
inhibiting the development of the colour (result in words): very effective | optical density at 475 nm (test compound 12.5 μM, duration 0 minutes): 0.0550 | optical density at 475 nm (test compound 12.5 μM, duration 10 minutes): 0.0571 | optical density at 475 nm (test compound 12.5 μM, duration 20 minutes): 0.0585 | optical density at 475 nm (test compound 12.5 μM, duration 30 minutes): 0.0604 | optical density at 475 nm (test compound 12.5 μM, duration 40 minutes): 0.0627 | optical density at 475 nm (test compound 12.5 μM, duration 60 minutes): 0.0659 | optical density at 475 nm (test compound 12.5 μM, duration 80 minutes): 0.0679 | optical density at 475 nm (test compound 12.5 μM, duration 100 minutes): 0.0696 | optical density at 475 nm (test compound 12.5 μM, duration 120 minutes): 0.0709 | % inhib (percentage of inhibition of the formation of the coloured product) (test compound 12.5 μM): 43% | optical density at 475 nm (test compound 25 μM, duration 0 minutes): 0.0573 | optical density at 475 nm (test compound 25 μM, duration 10 minutes): 0.0586 | optical density at 475 nm (test compound 25 μM, duration 20 minutes): 0.0595 | optical density at 475 nm (test compound 25 μM, duration 30 minutes): 0.0609 | optical density at 475 nm (test compound 25 μM, duration 40 minutes): 0.0623 | optical density at 475 nm (test compound 25 μM, duration 60 minutes): 0.0650 | optical density at 475 nm (test compound 25 μM, duration 80 minutes): 0.0682 | optical density at 475 nm (test compound 25 μM, duration 100 minutes): 0.0695 | optical density at 475 nm (test compound 25 μM, duration 120 minutes): 0.0703 | % inhib (percentage of inhibition of the formation of the coloured product) (test compound 25 μM): 63% | optical density at 475 nm (test compound 50 μM, duration 0 minutes): 0.0558 | optical density at 475 nm (test compound 50 μM, duration 10 minutes): 0.0574 | optical density at 475 nm (test compound 50 μM, duration 20 minutes): 0.0580 | optical density at 475 nm (test compound 50 μM, duration 30 minutes): 0.0591 | optical density at 475 nm (test compound 50 μM, duration 40 minutes): 0.0599 | optical density at 475 nm (test compound 50 μM, duration 60 minutes): 0.0617 | optical density at 475 nm (test compound 50 μM, duration 80 minutes): 0.0634 | optical density at 475 nm (test compound 50 μM, duration 100 minutes): 0.0654 | optical density at 475 nm (test compound 50 μM, duration 120 minutes): 0.0666 | % inhib (percentage of inhibition of the formation of the coloured product) (test compound 50 μM): 75% | optical density at 475 nm [1]: 0.0578 | optical density at 475 nm [2]: 0.0579 | optical density at 475 nm [3]: 0.0593 | optical density at 475 nm [4]: 0.0601 | optical density at 475 nm [5]: 0.0608 | optical density at 475 nm [6]: 0.0618 | optical density at 475 nm [7]: 0.0623 | optical density at 475 nm [8]: 0.0627 | optical density at 475 nm [9]: 0.0631 | % inhib (percentage of inhibition of the formation of the coloured product) (test compound 100 μM): 71%

O=c1cc(CO)occ1O [Kojic acid, kojic acid, reference compound]
inhibiting the development of the colour (result in words): does not make it possible to inhibit the development of the colour | inhibiting the development of the colour (result in words) (listed as kojic acid): without effect | optical density at 475 nm [1]: 0.0599 | optical density at 475 nm [2]: 0.0614 | optical density at 475 nm [3]: 0.0646 | optical density at 475 nm [4]: 0.0698 | optical density at 475 nm [5]: 0.0741 | optical density at 475 nm [6]: 0.0804 | optical density at 475 nm [7]: 0.0837 | optical density at 475 nm [8]: 0.0845 | optical density at 475 nm [9]: 0.0843 | % inhib (percentage of inhibition of the formation of the coloured product) (test compound 100 μM): −1%

CCCCc1ccc(O)cc1O [Lucinol, 4-butylresorcinol, reference compound]
inhibiting the development of the colour (result in words): does not make it possible to inhibit the development of the colour | inhibiting the development of the colour (result in words) (listed as lucinol): without effect | optical density at 475 nm [1]: 0.0552 | optical density at 475 nm [2]: 0.0563 | optical density at 475 nm [3]: 0.0591 | optical density at 475 nm [4]: 0.0629 | optical density at 475 nm [5]: 0.0671 | optical density at 475 nm [6]: 0.0730 | optical density at 475 nm [7]: 0.0758 | optical density at 475 nm [8]: 0.0768 | optical density at 475 nm [9]: 0.0765 | % inhib (percentage of inhibition of the formation of the coloured product) (test compound 100 μM): 0%

O=C(O)CNC(=O)c1ccc[nH]c1=S [Compound 2, N-[(2-thioxo-1,2-dihydropyridin-3-yl)carbonyl]glycine]
inhibiting the development of the colour (result in words): very effective | optical density at 475 nm [1]: 0.0547 | optical density at 475 nm [2]: 0.0561 | optical density at 475 nm [3]: 0.0567 | optical density at 475 nm [4]: 0.0569 | optical density at 475 nm [5]: 0.0574 | optical density at 475 nm [6]: 0.0578 | optical density at 475 nm [7]: 0.0578 | optical density at 475 nm [8]: 0.0578 | optical density at 475 nm [9]: 0.0580 | % inhib (percentage of inhibition of the formation of the coloured product) (test compound 100 μM): 84%
